According to patent US20190246646A1 (priority 2016, published 2019):

Key:
M. oryzae BOA102 [1] = conditions: for mycelium color / phenotype of the fungal colony: BOA102 exposed to single commercial compound, dual plate; for mycelium growth measured as colony diameter: Student T-test p<0.05
M. oryzae mycelium = conditions: compound added to fungal growth media; untreated black; cited from earlier work
M. oryzae BOA102 [2] = conditions: grown in the presence of Tricyclazole

With `CC(=O)OCCC(C)C` [1-butanol-3-methyl-acetate] the “mycelium color / phenotype of the fungal colony” value (from here on “mycelium color / phenotype”) (M. oryzae BOA102 [1]) was “do not induce appreciable phenotype/color variations” and the “mycelium growth measured as colony diameter” value (shortened to “mycelium growth measured”) (M. oryzae BOA102 [1]) was “significant reduction”.
With `CC(C)CCO` [1-butanol-3-methyl] the “mycelium color / phenotype” value (M. oryzae BOA102 [1]) was “shift from black to white” and the “mycelium growth measured” value (M. oryzae BOA102 [1]) was “significant reduction”.
In the case of `CC(C)CO` [1-propanol-2-methyl], the “mycelium color / phenotype” value (M. oryzae BOA102 [1]) is reported as “do not induce appreciable phenotype/color variations” and the “mycelium growth measured” value (M. oryzae BOA102 [1]) is reported as “significant reduction”.
In the case of `Cc1ccc(C(=O)NC[C@@H](NC(=O)OCC(F)(F)F)C(C)C)cc1` [Tolprocab], the “pigmentation of M. oryzae mycelium” value (M. oryzae mycelium) is given as “white”.
For `Cc1cccc2sc3nncn3c12` [Tricyclazole], the “pigmentation of M. oryzae mycelium” value (M. oryzae mycelium) is listed as “orange” and the “color of the mycelium (DHN melanin inhibition phenotype)” value (M. oryzae BOA102 [2]) is listed as “orange color”.
With `CCO` [ethanol] the “mycelium color / phenotype” value (M. oryzae BOA102 [1]) was “do not induce appreciable phenotype/color variations” and the “mycelium growth measured” value (M. oryzae BOA102 [1]) was “No effect”.
